Like-named read-outs stand apart in the source and are kept apart here.
Experiments:
[1] = biological target: T1, Human recombinant PDE3A (hPDE3A) (Homo sapiens, UniProt Q14432); assay: In vitro assay PDE3A (SPA, 3H-cAMP hydrolysis); format: biochemical; conditions: for IC50: hPDE3B pIC50, read-out: pIC50 (converted); for Emax: read-out: hPDE3B Emax, read-out: Emax;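 on all read-outs here: the method names PDE3A and the table heading PDE3B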
T1 construct: purchased Scottish Biomedical; host or cells: Sf9 insect cells
T1 sequence (Q14432 whole entry): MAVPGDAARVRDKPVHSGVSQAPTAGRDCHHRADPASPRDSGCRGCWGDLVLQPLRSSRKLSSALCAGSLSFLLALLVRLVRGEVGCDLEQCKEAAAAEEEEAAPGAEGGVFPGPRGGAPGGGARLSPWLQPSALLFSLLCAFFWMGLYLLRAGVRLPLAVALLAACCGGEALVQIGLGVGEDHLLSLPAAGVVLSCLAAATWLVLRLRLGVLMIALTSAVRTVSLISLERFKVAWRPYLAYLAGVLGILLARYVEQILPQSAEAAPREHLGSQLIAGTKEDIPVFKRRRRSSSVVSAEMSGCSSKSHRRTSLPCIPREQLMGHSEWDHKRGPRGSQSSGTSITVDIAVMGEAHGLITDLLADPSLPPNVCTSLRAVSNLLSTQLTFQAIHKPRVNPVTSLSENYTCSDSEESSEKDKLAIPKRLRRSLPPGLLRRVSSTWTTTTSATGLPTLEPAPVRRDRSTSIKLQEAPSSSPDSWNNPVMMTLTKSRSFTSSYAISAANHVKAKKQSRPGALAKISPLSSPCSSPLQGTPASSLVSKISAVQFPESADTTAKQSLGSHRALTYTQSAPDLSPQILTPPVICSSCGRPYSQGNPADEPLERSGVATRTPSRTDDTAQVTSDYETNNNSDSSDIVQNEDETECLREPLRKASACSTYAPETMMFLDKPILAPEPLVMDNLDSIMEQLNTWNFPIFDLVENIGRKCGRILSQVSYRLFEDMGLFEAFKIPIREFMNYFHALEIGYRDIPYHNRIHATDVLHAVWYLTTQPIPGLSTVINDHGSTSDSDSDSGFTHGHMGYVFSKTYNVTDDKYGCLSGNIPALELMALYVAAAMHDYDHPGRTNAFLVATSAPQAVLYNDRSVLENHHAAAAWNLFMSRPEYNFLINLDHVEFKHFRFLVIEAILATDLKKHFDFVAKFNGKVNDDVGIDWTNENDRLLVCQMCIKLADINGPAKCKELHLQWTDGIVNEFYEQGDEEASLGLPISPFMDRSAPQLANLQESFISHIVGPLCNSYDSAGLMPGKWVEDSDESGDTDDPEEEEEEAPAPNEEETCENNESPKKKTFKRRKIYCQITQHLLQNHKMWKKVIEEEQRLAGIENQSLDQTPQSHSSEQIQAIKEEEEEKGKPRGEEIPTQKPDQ
Method in brief: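 Human PDE3A, cloned from brain, as partially purified Sf9 lysate. Substrate 0.4 μM cAMP plus [3H]-cAMP (2.4 μCi/ml final) in 50 mM Tris pH 7.8, 8.3 mM MgCl2, 1.7 mM EGTA, 60 min at room temperature, 1% DMSO final. Hydrolysis read by SPA scintillation counting against no-enzyme blanks and DMSO controls.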

[2] = biological target: T2, PDE2A (Rattus norvegicus, UniProt Q01062); assay: PDE2 occupancy by test compounds, ex-vivo autoradiography with [3H]B-17a; format: in vivo, Male Wistar rats; conditions: for receptor occupancy at 10 mg/kg: route PO (oral), percentage receptor occupancy, ex-vivo autoradiography, striatum; for ED50: read-out: PDE Occupancy ED50
T2 construct: Twenty μm-thick striatal sections were cut; from tissue; host or cells: rat brain, striatal sections
T2 sequence (Q01062 1-928): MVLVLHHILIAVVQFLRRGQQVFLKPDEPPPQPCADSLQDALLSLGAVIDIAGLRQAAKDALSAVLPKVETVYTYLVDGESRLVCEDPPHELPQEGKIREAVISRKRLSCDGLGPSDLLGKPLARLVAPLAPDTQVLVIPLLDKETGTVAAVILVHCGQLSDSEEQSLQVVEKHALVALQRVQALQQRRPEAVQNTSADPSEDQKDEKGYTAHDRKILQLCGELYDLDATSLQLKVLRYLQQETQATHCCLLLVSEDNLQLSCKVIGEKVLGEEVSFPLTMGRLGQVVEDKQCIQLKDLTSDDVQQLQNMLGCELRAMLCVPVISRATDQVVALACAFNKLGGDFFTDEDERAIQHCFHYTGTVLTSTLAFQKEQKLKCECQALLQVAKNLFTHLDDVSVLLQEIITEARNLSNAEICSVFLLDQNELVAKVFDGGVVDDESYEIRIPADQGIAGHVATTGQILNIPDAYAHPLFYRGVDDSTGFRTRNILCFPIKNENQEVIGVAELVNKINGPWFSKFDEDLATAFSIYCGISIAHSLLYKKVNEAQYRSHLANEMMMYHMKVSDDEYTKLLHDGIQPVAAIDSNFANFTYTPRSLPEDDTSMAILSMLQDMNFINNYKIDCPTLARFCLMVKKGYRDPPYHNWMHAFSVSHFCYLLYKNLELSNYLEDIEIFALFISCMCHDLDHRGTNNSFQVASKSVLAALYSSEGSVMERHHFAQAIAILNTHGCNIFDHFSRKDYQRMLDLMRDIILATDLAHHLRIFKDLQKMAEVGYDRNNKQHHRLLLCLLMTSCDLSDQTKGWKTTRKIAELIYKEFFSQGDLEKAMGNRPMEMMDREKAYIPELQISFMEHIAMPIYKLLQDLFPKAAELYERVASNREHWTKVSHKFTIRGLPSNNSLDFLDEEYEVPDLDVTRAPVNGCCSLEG

[3] = biological target: T3, Human recombinant PDE2A (hPDE2A) (Homo sapiens, UniProt O00408); assay: In vitro assay PDE2A (SPA, 3H-cGMP hydrolysis); format: biochemical; conditions: for Emax: read-out: hPDE2A Emax
T3 construct: His tag (inferred from metal chelate purification); made in house; host or cells: Sf9 insect cells (baculovirus)
T3 sequence (O00408 whole entry): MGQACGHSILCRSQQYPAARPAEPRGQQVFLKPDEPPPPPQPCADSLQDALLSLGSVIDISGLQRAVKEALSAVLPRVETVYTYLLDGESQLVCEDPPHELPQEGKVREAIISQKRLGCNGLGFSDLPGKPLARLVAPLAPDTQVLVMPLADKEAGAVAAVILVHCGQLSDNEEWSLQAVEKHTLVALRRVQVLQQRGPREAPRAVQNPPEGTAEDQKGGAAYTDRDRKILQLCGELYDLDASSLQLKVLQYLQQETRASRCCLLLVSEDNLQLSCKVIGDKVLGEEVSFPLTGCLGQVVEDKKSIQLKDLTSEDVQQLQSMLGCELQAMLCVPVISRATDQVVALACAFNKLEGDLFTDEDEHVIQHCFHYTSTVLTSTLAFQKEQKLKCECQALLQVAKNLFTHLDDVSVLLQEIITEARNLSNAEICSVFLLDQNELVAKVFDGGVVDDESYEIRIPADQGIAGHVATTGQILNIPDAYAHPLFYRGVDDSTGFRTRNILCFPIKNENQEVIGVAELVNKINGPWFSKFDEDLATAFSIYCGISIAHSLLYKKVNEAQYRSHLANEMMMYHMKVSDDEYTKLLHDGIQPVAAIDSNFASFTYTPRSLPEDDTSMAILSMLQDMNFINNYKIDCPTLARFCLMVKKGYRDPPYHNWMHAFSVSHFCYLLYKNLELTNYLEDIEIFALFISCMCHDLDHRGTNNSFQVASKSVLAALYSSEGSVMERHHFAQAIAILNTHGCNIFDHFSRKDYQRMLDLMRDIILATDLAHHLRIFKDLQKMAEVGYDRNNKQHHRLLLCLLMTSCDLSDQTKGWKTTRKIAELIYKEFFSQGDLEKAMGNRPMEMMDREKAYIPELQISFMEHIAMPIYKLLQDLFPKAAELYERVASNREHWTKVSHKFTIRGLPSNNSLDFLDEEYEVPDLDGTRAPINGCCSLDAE

[4] = biological target: T4, Human recombinant PDE10A (hPDE10A) (Homo sapiens, UniProt Q9Y233); assay: In vitro assay PDE10A, human clone (SPA, 3H-cAMP hydrolysis); format: biochemical; conditions: human clone by default (no (r) mark); for Emax: read-out: hPDE10A2 or rPDE10A2 Emax; for IC50: read-out: hPDE10A2 or rPDE10A2 pIC50 (converted)
T4 construct: His tag (inferred from metal chelate purification); made in house; host or cells: Sf9 insect cells (baculovirus)
T4 sequence (Q9Y233 267-1055): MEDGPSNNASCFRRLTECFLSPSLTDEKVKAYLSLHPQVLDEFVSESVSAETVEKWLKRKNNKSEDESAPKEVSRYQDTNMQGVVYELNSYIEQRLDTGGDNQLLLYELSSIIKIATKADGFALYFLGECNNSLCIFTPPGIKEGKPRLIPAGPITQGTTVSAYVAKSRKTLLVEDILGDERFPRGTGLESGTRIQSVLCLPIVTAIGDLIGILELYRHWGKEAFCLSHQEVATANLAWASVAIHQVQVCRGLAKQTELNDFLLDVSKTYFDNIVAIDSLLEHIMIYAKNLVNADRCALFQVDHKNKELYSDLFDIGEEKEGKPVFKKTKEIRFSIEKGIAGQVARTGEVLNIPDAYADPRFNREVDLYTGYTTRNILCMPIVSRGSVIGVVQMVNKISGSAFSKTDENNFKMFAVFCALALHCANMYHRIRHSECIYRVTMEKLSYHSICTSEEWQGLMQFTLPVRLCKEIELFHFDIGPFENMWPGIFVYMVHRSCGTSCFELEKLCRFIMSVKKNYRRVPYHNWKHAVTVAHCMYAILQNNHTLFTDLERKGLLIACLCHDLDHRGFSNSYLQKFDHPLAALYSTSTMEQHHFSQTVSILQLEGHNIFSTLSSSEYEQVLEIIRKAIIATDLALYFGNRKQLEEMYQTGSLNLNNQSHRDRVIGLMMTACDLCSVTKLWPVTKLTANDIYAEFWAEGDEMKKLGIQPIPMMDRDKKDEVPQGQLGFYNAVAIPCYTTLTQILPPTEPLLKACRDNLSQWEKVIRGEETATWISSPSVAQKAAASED
Method in brief: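 Human recombinant PDE10A was expressed in Sf9 cells via baculovirus and incubated with compound in 50 mM Tris pH 7.8, 8.3 mM MgCl2, 1.7 mM EGTA. Substrate was 60 nM cAMP plus 0.008 μCi 3H-cAMP for 60 min at room temperature, read by SPA scintillation counting. Controls used 1% DMSO, and blanks omitted enzyme.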

[5] = read-out: hPDE2A pIC50 (converted)

SMILES	IC50 [1] [nM]	Emax [1] [%]	melting point [°C]	receptor occupancy at 10 mg/kg [2] [%]	ED50 ([2]; po) [mg/kg]	Emax [3] [%]	IC50 [3, 5] [nM]	Emax [4] [%]	IC50 [4] [nM]	receptor occupancy at 10 mg/kg ([2]; po) [%]	IC50 ([3]; hPDE2A pIC50) [nM]
O=C(c1cnc2c(Cl)cccc2c1)N1[C@H]2CC[C@H](c3cc(C(F)F)nc4ncnn34)[C@@H]1CC2 [Compound 310]	3890	78	240.9	52	9.6	100	1.41	95	398		
Cc1cc(C(=O)N2CC[C@@H](C)[C@H](c3cc(C(F)F)nc4ncnn34)C2)cc(C(F)F)n1 [Compound 321]	8130	45	137.5		3.37	101		97	309	73	2.19
C[C@@H]1CCN(C(=O)c2cn(C)c3ccccc23)C[C@H]1c1cc(C(F)F)nc2ncnn12 [Compound 328]	1480	90	247.48			100	0.631	100	61.7	-18	
C[C@@H]1CCN(C(=O)c2ccc3ncc(F)cc3c2)C[C@H]1c1cc(C(F)F)nc2ncnn12 [Compound 332]	1200	90	183.18			99	4.79	98	30.9	8	
C[C@@H]1CCN(C(=O)c2cc(Cl)cc(Cl)c2)C[C@H]1c1cc(C(F)F)nc2ncnn12 [Compound 334]	2340	84	239.87			100		98	100	17	2.45
O=C(c1ccc2occc2c1)N1[C@H]2CC[C@H](c3cc(C(F)F)nc4ncnn34)[C@@H]1CC2 [Compound 353]	4790	69	230.66	15		99	3.39	94	977		
O=C(c1ccc(Cl)c(Cl)c1)N1[C@H]2CC[C@H](c3cc(C(F)F)nc4ncnn34)[C@@H]1CC2 [Compound 356]	5890	65	187.93	51	5.55	99	5.37	92	933		
CCn1ccc2cc(C(=O)N3[C@H]4CC[C@H](c5cc(C(F)F)nc6ncnn56)[C@@H]3CC4)ccc21 [Compound 363]	617	97	221.75	-11		99	0.275	98	178		
